# In patent US7091038B2, “Ecdysone receptor-based inducible gene expression system” (RheoGene, Inc., priority 2000, dated 2006):
# Legend:
# [1] = tested on: VP16CfEcR; assay: Transactivation of reporter gene through switch 1.7 in CHO cells; format: cell-based, Choristoneura fumiferana; conditions: switch 1.7, pEcRELuc
# Protocol: Six ecdysone response elements (“EcRE”; SEQ ID NO: 55) from the hsp27 gene were placed upstream of the promoter and a luciferase gene (SEQ ID NO: 66). This switch most probably uses endogenous RXR.
# (§1) The cells were harvested and reporter activity was assayed.
# (§2) Cells were harvested 24–48 hr after adding ligands. […] Twenty μl of lysate was assayed.
# [2] = tested on: CfVgRXR + MmRXR; assay: Transactivation of reporter gene through switch 1.9 in CHO cells; format: cell-based, Choristoneura fumiferana; Mus musculus; conditions: switch 1.9, pIND(SP1)LacZ
# Protocol: (§3) This example was prepared in the same way as switch 1.8 except DmEcR was replaced with a truncated CfEcR comprising a partial A/B domain and the complete CDEF domains [SEQ ID NO: 70 (polynucleotide) and SEQ ID NO: 71 (polypeptide)].
# as §1, §2
# [3] = tested on: CfVgRXR; assay: Transactivation of reporter gene through switch 1.10 in CHO cells; format: cell-based, Choristoneura fumiferana; conditions: switch 1.10, pIND(SP1)LacZ
# Protocol: This example was prepared in the same way as switch 1.9 except MmRXR (SEQ ID NO: 62) was deleted.
# as §1, §2
# [4] = tested on: CfVgRXR + MmRXR; assay: Transactivation of reporter gene through switch 1.9 in 3T3 cells; format: cell-based, Choristoneura fumiferana; Mus musculus; conditions: switch 1.9, pIND(SP1)LacZ
# Protocol: as §3, §1
# (§4) The cells were plated when they reached 50% confluency.
# as §2
# [5] = tested on: GAL4EcR + VP16USP; assay: Transactivation of reporter gene through switch 1.2 in 293 cells; format: cell-based, Choristoneura fumiferana; conditions: switch 1.2, pGAL4RELuc
# Protocol: (§5) This construct was prepared in the same way as in switch 1.1 above except MmRXRDEF was replaced with the D, E and F domains from spruce budworm USP (“CfUSPDEF”; SEQ ID NO: 67). The constructs used in this example are similar to those disclosed in U.S. Pat. No. 5,880,333 except that Choristoneura fumiferana USP rather than Drosophila melanogaster USP was utilized.
# as §1
# (§6) The same procedures described for CHO were followed for 293 cells except that the cells were plated in biocoated plates to avoid clumping.
# as §2
# [6] = tested on: GAL4USP + VP16CfEcR; assay: Transactivation of reporter gene through switch 1.5 in 293 cells; format: cell-based, Choristoneura fumiferana; conditions: switch 1.5, pGAL4RELuc
# Protocol: This construct was prepared in the same way as switch 1.3 except MmRXRDEF was replaced with CfUSPDEF (SEQ ID NO: 67).
# as §1, §6, §2
# [7] = tested on: GAL4CfEcRVP16; assay: Transactivation of reporter gene through switch 1.6 in 293 cells; format: cell-based, Choristoneura fumiferana; conditions: switch 1.6, pGAL4RELuc
# Protocol: This construct was prepared so that both the GAL4 DNABD and the VP16AD were placed on the same molecule. GAL4DNABD (SEQ ID NO: 43) and VP16AD (SEQ ID NO: 49) were fused to CfEcRDEF (SEQ ID NO: 3) at N-and C-termini respectively.
# as §1, §6, §2
# [8] = tested on: GAL4EcR + VP16USP; assay: Transactivation of reporter gene through switch 1.2 in CV1 cells; format: cell-based, Choristoneura fumiferana; conditions: switch 1.2, pGAL4RELuc
# Protocol: as §5, §1, §4
# (§7) The same procedures described for NIH3T3 cells were followed for CV1 cells
# as §2
# [9] = molecular target: T1, GAL4RXR + VP16DmEcR (Drosophila melanogaster, UniProt P34021); assay: Transactivation of reporter gene through switch 1.4 in CV1 cells; format: cell-based, Mus musculus; Drosophila melanogaster; set-up: expressed in transfected cells; host or cells: CV1 cells; conditions: switch 1.4, pGAL4RELuc
# T1 sequence (P34021 254-878): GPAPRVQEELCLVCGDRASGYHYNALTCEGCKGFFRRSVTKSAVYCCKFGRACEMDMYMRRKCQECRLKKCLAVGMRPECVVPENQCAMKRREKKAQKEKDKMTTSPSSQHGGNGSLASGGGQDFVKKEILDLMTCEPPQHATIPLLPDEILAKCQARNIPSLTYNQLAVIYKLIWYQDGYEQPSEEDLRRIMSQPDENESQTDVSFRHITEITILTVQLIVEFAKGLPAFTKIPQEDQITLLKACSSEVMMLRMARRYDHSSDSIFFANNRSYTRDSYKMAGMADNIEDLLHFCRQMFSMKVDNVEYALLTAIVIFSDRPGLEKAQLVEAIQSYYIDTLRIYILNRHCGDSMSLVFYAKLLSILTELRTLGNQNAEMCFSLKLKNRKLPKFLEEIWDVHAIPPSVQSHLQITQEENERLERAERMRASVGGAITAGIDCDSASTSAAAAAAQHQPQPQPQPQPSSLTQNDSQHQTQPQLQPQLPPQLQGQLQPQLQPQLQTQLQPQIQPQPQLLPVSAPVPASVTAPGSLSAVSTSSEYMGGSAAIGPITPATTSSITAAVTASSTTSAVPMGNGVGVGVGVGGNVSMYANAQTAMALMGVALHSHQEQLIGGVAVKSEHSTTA
# T1 sequence (P28700 206-467 partner limits assumed): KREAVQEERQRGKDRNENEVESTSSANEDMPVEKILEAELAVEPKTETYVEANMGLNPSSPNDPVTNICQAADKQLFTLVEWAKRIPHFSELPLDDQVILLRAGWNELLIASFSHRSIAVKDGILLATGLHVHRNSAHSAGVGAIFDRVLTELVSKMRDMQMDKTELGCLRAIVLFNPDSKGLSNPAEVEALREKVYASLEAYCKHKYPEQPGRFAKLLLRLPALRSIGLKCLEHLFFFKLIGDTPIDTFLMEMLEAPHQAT
# Protocol: This construct was prepared in the same way as switch 1.3 except CfEcRCDEF was replaced with DmEcRCDEF (SEQ ID NO: 6).
# as §1, §4, §7, §2
smiles,measurement,setting,value
"CCc1c(OC)cccc1C(=O)NN(C(=O)c1cc(C)cc(C)c1)C(C)(C)C [N-(2-ethyl-3-methoxybenzoyl)-N′-(3,5-dimethylbenzoyl)-N′-t-butylhydrazine]","Mean Fold Activation with 50 μM N-(2-ethyl-3-methoxybenzoyl)-N′-(3,5-dimethylbenzoyl)-N′-t-butylhydrazine",[1],36 fold
same,"Mean Fold Activation with 50 μM N-(2-ethyl-3-methoxybenzoyl)-N′-(3,5-dimethylbenzoyl)-N′-t-butylhydrazine",[2],27 fold
same,"Mean Fold Activation with 50 μM N-(2-ethyl-3-methoxybenzoyl)-N′-(3,5-dimethylbenzoyl)-N′-t-butylhydrazine",[3],29 fold
same,"Mean Fold Activation Through N-(2-ethyl-3-methoxybenzoyl)-N′-(3,5-dimethylbenzoyl)-N′-t-butylhydrazine",[4],19 fold
same,"Mean Fold Activation Through N-(2-ethyl-3-methoxybenzoyl)-N′-(3,5-dimethylbenzoyl)-N′-t-butylhydrazine",[5],2 fold
same,"Mean Fold Activation Through N-(2-ethyl-3-methoxybenzoyl)-N′-(3,5-dimethylbenzoyl)-N′-t-butylhydrazine",[6],2 fold
same,"Mean Fold Activation Through N-(2-ethyl-3-methoxybenzoyl)-N′-(3,5-dimethylbenzoyl)-N′-t-butylhydrazine",[7],3 fold
same,"Mean Fold Activation Through N-(2-ethyl-3-methoxybenzoyl)-N′-(3,5-dimethylbenzoyl)-N′-t-butylhydrazine",[8],2 fold
same,"Mean Fold Activation Through N-(2-ethyl-3-methoxybenzoyl)-N′-(3,5-dimethylbenzoyl)-N′-t-butylhydrazine",[9],80 fold
